Several values for one entry are separate records, joined by “and”; a condition that tells them apart may be missing. Equal entries are not always repeated. Where two headings read alike, the source gives them in different places.
How the values were obtained:
Format in all cases: cell-based
Caco-2 cancer cell line = assay: MTT cell viability assay, Caco-2; details: MTT, 48 h, average of triplicates, semi-synthesized compounds (Table 3), read-out: IC50 (μM) on Caco-2 cancer cell line
Experimental: MCF-7 cells (Human breast adenocarcinoma), HepG2 (human hepatocellular carcinoma), A549 (human lung adenocarcinoma), Caco-2 (colon carcinoma), PANC-1 (human pancreatic cancer), and Vero cells (derived from normal kidney cells) were supplied by (Holding Company for Biological Products and Vaccines VACSERA; Giza, Egypt). The cells were cultured in PRMI 1640 medium (Lonza, Switzerland) supplemented with 10% fetal bovine serum (Gibco), 1% penicillin and 1% streptomycin (Sigma Aldrich, Saint Louis, MO, USA) at 37 °C under an atmosphere of 5% CO2 and 95% air.
The effect of parent compounds and their derivatives were assessed by (3-(4,5-dimethylthiazol-2-yl)-2,5diphenyl-tetrazolium bromide) MTT assay. […] After a merged sheet of cells developed, the growth media was decanted from the 96-well microtiter and refilled with different concentrations of compounds (µg/mL), and the plate was incubated at 37 °C for 48 h to minimize exposure to the dissolving agent (Supporting Information).
MTT solution (BIO BASIC CANADA INC) was prepared [5 mg/mL in phosphate buffered saline (PBS)], added to each well and incubated for 4 h, then after removing the media, 200 μL of DMSO was added to each well to solubilize the formazan crystals and the optical density of the formazan product was measured at 560 nm using microplate reader (mindray, MR-96A). The results were calculated as the mean of the three independent experiments. […]
Determination of sample cytotoxicity on cells (MTT protocol) […]
well) and incubated at 37°C for 24 hours to develop a complete monolayer sheet.
2- Growth medium was decanted from 96 well micro titer plates after confluent sheet of cells were formed, cell monolayer was washed twice with wash media.
3- two-fold dilutions of tested sample was made in RPMI medium with 2% serum […]
4- 0.1 ml of each dilution was tested in different wells leaving 3 wells as control, receiving only maintenance medium.
5- Plate was incubated at 37°C and examined. Cells were checked for any physical signs of toxicity, e.g. partial or complete loss of the monolayer, rounding, shrinkage, […]
6- MTT solution was prepared (5mg/ml in PBS) (BIO BASIC CANADA INC).
8- 20ul MTT solution were added to each well. Place on a shaking table, 150rpm for 5 minutes, to thoroughly mix the MTT into the media.
10) Dump off the media. (dry plate on paper towels to remove residue if necessary. […] 9 ش - ايلعلا هبضهلا - مطقملا / ىسيئرلا لمعملا […]

Caco-2 cells [1] = assay: Cell-cycle analysis by flow cytometry; details: for %G0–G1 / %G2/M / %S / %Pre-G1: Caco-2 cells; for %G0–G1 / %G2/M / %S: cell-cycle distribution after treatment; for %Pre-G1: Pre-G1 = apoptotic population
Experimental: The potential candidates with anti-tumor effect on the Caco-2 cell line along with a high SI were chosen for cell-cycle analysis. The cell-cycle distribution and cell death were analyzed using Annexin V-FITC/PI staining and flow cytometry (Table 4, Figure 4).
In order to determine the percentage of viable, apoptotic and necrotic cells after treatment with our compounds, double-staining with fluorescein isothiocyanate (FITC) and PI was performed. Annexin V-FITC Apoptosis Detection Kit (BioVision, CA, USA) was used. Briefly, cultured Caco-2 were treated with the tested compounds or DMSO for 24h. Cells were then collected by centrifugation at 2000 rpm for 5 min, and the pellet was washed with PBS then centrifuged again at 2000 rpm for 5 min then resuspended in 500μL of the kit’s binding buffer before adding the Annexin V-FITC and PI. The cells were then incubated at room temperature in the dark for 5 min. […]
Assay : Cell Cycle Analysis
Kit used : ab139418_Propidium Iodide Flow Cytometry Kit/BD
Assay samples :Cell culture
(§1) Cpd. No. Cpd. No. Cpd. No. Cpd. No.

Caco-2 cells [2] = assay: Annexin V-FITC/PI apoptosis assay by flow cytometry; set-up: key: % of cells; details: annexin-V FITC/PI staining, 24h
Experimental: In order to determine the percentage of viable, apoptotic and necrotic cells after treatment with our compounds, double-staining with fluorescein isothiocyanate (FITC) and PI was performed. Annexin V-FITC Apoptosis Detection Kit (BioVision, CA, USA) was used. Briefly, cultured Caco-2 were treated with the tested compounds or DMSO for 24h. Cells were then collected by centrifugation at 2000 rpm for 5 min, and the pellet was washed with PBS then centrifuged again at 2000 rpm for 5 min then resuspended in 500μL of the kit’s binding buffer before adding the Annexin V-FITC and PI. The cells were then incubated at room temperature in the dark for 5 min. Annexin V-FITC binding was measured using FACS Calibur flow cytometer (BD biosciences, USA) (Ex = 488 nm, Em = 533 nm, FL1 filter for annexin and FL2 filter for PI).

p53 = assay: RT-qPCR gene expression of p53
Experimental: (§2) Gene expression was chosen over Western blotting for more accurate quantification and thus comparison. The gene expression of the p53, caspase 3 and Bax genes was measured.
(§3) The treated cells were harvested and the total RNA was extracted using RNeasy Mini Kit (Qiagen) according to the manufacturer’s instruction. The primers of the required genes (Table 6) were used for SYBR Green qRT-PCR using a one-step RT-PCR kit with SYBR Green (Bio-Rad). qRT-PCR was performed on Rotor Gene Q (Qiagen). […] Rotor-Gene 6000 Series Software was used for data analysis. and their HGNC ID was added (Table 6) […]
(§4) Researcher : DR Moh.Abdelbasir email: m_a_baser@yahoo.com mob.01 […]
(§5) Reader : Rotorgene RT- PCR system
(§6) Kit used : Qiagen RNA extraction/BioRad syber green PCR MMX
(§7) Assay samples :Cell culture Lysate
as §1
(§8) Run On Software Version Rotor-Gene 1.7.87
(§9) This report generated by Rotor-Gene 6000 Series Software 1.7 (Build 87) Copyright 2000-2006 Corbett Research, a Division of Corbett Life Science. All rights reserved. […]

Caspase 3 = assay: RT-qPCR gene expression of caspase 3
Experimental: as §2, §3, §4, §5, §6, §7, §1, §8, §9

Bax = assay: RT-qPCR gene expression of Bax
Experimental: as §2, §3, §4, §5, §6, §7, §1, §8, §9

Bcl-2 = assay: RT-qPCR gene expression of Bcl-2; details: Caco2, β-actin as control gene, relative to cont.Caco2 = 1; listed as FA9
Experimental: as §3, §4, §5, §6, §7, §1, §8, §9

MMP-2 = assay: RT-qPCR gene expression of MMP-2; details: Caco2, relative to cont.Caco2 = 1
Experimental: (§10) The treated cells were harvested and the total RNA was extracted using RNeasy Mini Kit (Qiagen) according to the manufacturer’s instruction. The primers of the required genes (Table 6) were used for SYBR Green qRT-PCR using a one-step RT-PCR kit with SYBR Green (Bio-Rad). qRT-PCR was performed on Rotor Gene Q (Qiagen). […] Rotor-Gene 6000 Series Software was used for data analysis. and their HGNC ID was added (Table 6)
(§11) Researcher : Dr/Noura email: mob.
as §5, §6, §7, §1

MMP-9 = assay: RT-qPCR gene expression of MMP-9; details: Caco2, relative to cont.Caco2 = 1
Experimental: as §10, §11, §5, §6, §7, §1

[3] = Caco2, β-actin as control gene, relative to cont.Caco2 = 1, listed as FA9

IC50 (Caco-2 cancer cell line; Homo sapiens, Caco-2)	SMILES	%G0–G1 (Caco-2 cells [1])	%G2/M (Caco-2 cells [1])	%S (Caco-2 cells [1])	%Pre-G1 (Caco-2 cells [1])	Apoptosis Total (Caco-2 cells [2])	Early Apoptosis (Caco-2 cells [2])	Necrosis (Caco-2 cells [2])	MMP2 Fold Change (MMP-2)	MMP9 Fold Change (MMP-9)	other results
	COc1ccc(/C=C/C(=O)NCc2ccccc2)cc1O [Compound 18, (E)-N-Benzyl-3-(3-hydroxy-4-methoxyphenyl) acrylamide]	33.26 ± 4.29%	37.62 ± 2.47%	29.12 ± 4.05%	12.92 ± 2.16%	12.92	3.88	1.73	0.42±0.011 Fold Change	0.52±0.010 Fold Change	IC50 (Caco-2 cancer cell line): 50 µM; apoptotic population compared to the parent compound (Caco-2 cells [1]; Caco-2, in words, versus parent 1 or 2): non-significant decrease; %G0–G1 (Caco-2 cells [1]; listed as FA9): 33.26%; %G2/M (Caco-2 cells [1]; listed as FA9): 37.62%; %S (Caco-2 cells [1]; listed as FA9): 29.12%; %Pre-G1 (Caco-2 cells [1]; listed as FA9): 12.92%; Late Apoptosis (Caco-2 cells [2]): 7.31; P53 gene expression Fold Change (p53; [3]): 5.87±0.27 Fold Change and 5.878 Fold Change; Casp3 gene expression Fold Change (Caspase 3; [3]): 6.02±0.33 Fold Change and 6.029 Fold Change; Bax gene expression Fold Change (Bax; [3]): 6.06±0.41 Fold Change and 6.068 Fold Change; Bcl2 gene expression Fold Change (Bcl-2): 0.58±0.03 Fold Change and 0.5856 Fold Change
10 µM	Nc1ccccc1NC(=O)/C=C/c1ccc(O)c(O)c1 [Compound 11, (E)-N-(2-Aminophenyl)-3-(3,4-dihydroxyphenyl)acrylamide]	41.09 ± 2.76%	25.55 ± 2.47%	33.36 ± 2.73%	14.04% and 14.04 ± 0.95%	14.04	2.47	2.07	0.54±0.014 Fold Change	0.30±0.006 Fold Change	%G0–G1 (Caco-2 cells [1]; listed as CA12): 41.09%; %G2/M (Caco-2 cells [1]; listed as CA12): 25.55%; %S (Caco-2 cells [1]; listed as CA12): 33.36%; Late Apoptosis (Caco-2 cells [2]; listed as CA12): 9.5
20 µM	COc1cc(/C=C/C(=O)NC2CCCCC2)ccc1O [Compound 15, (E)-N-Cyclohexyl-3-(4-hydroxy-3-methoxyphenyl)acrylamide]	26.59 ± 2.67%	50.83 ± 3.49%	22.58 ± 2.91%	25.17% and 25.17 ± 3.29%	25.17	5.79	2.81	0.59±0.016 Fold Change	0.37±0.007 Fold Change	%G0–G1 (Caco-2 cells [1]; listed as FA5): 26.59%; %G2/M (Caco-2 cells [1]; listed as FA5): 50.83%; %S (Caco-2 cells [1]; listed as FA5): 22.58%; overexpression of p53 gene (p53; Figures 6 and 7): 10 fold; overexpression of caspase 3 gene (Caspase 3; Figures 6 and 7): 15 fold; overexpression of Bax gene (Bax; Figures 6 and 7): 15 fold

Source: paper PMC9571594, “Development of Semisynthetic Apoptosis-Inducing Agents Based on Natural Phenolic Acids Scaffold: Design, Synthesis and In-Vitro Biological Evaluation” (Molecules, 2022)
